The test system of experiment [1] is rabbit euglobulin fraction. Kind of experiment: In vitro euglobulin clot lysis time (ECLT). Format: biochemical. To be noted: dosage differs per compound (1.3-6.7 μg; UK 5 IU); 96 well microtiter plate; n = 6; NS control 200.01 ± 15.26. As to the method:
The rabbit euglobulin fraction was prepared according to the literature^[6]. Plasma diluted […] in distilled water was precipitated at pH 5.7 with acetic acid (0.25%). After 30 min at 4° C. the suspension was centrifuged at 2000 g for 15 min and the precipitate was resuspended to the initial plasma volume with 50 mM barbital buffer (pH 7.8, contained 1.66 mM of CaCl2, 0.68 mM of MgCl2 and 93.96 mM of NaCl). Euglobulin clot lysis time (ECLT) of the tested pseudopeptide was measured using a 96 well microtiter plate^[7] and the data are listed in Table 2.

A further experiment concerns fibrin plate. Nature of the experiment: In vitro fibrinolytic lysis on fibrin plate (fibrinogen-agarose). The experiment is classed as biochemical, rabbit. To be noted: dosage per well differs per compound (0.8-2.2 μg; UK 5 IU); n = 6; NS control 21.01 ± 9.26. As to the method: The plates were prepared by mixing equal volumes of 0.3% rabbit fibrinogen and 0.95% agarose solutions, both dissolved in 50 mM of barbital buffer (pH 7.8, contained 1.66 mM of CaCl2, 0.68 mM of MgCl2 and 93.96 mM of NaCl)^[6]. The fibrinogen-agarose mixture was coagulated with […] thrombin (100 IU: ml) in the plastic dishes (its diameter is 90 mm and the depth of the fibrin plate is 1 mm). After 30 min at 4° C. an adequate number of wells, 5 mm in diameter, were perforated. To determine fibrinolytic activity […] aliquots of the tested pseudopeptides were added to each well, the plate was incubated, and areas of lysis were quantified as described for the regular fibrin plates.

A further experiment concerns thrombus. Kind of experiment: In vivo thrombolytic activity, thrombus on steel helix in extracorporeal circulation. To be noted: male Wistar rats; injected; dose differs per compound (3.1-8.2 mg/kg; UK 20000 IU); blood circulated 90 min; n = 10; NS control 12.31 ± 2.57. The method, then:
Male Wistar rats weighing 200–300 g (purchased from Animal Center of Peking University) were anesthetized with pentobarbital sodium (80.0 mg/kg, ip). The right carotid artery and left vein jugular of the animals were separated. To the glass tube filled with artery blood (1.0 ml) from the right carotid artery of the animal a stainless steel filament helix (15 circles; L, 15 mm; D, 1.0 mm) was put immediately. After 15 minutes the helix with thrombus was carefully taken out and weighted exactly, which was put into the middle polyethylene tube. The polyethylene tube was full with heparin sodium (50 IU/ml of NS) and one end was inserted into the left jugular vein. Heparin sodium was injected via the other end of the polyethylene tube as the anticoagulant, following which the tested pseudopeptide was injected. The blood was circulated through the polyethylene tube for 90 min, after which the helix was taken out and weighted accurately.

Ends that are not written are not given here.

On to “3S-1,2,3,4-tetrahydro-β-carboline-3-carboxyl-Ala-Arg-Pro-Ala-Lys-OH (ARPAK-OH; not fully specified (N-terminus); printed as 3S-1,2,3,4-tetrahydro-β-carboline-3-carboxyl-Ala-Arg-Pro-Ala-Lys-OH) [compound 11]”, for which the “Euglobulin clot lysis time, x ± SD” value in experiment [1] is given as 204.01 ± 32.61 min. Further, in the experiment with fibrin plate, the “Effect of the pseudopeptides on fibrin plate, areas of lysis, x ± SD” value (“Effect of the pseudopeptides … x ± SD” for short) is 24.10 ± 10.16 mm^2. Moreover, in the experiment on thrombus, the “The reduction of thrombolytic mass, x ± SD” value (“The reduction … x ± SD” below) turned out to be 14.01 ± 2.61 mg.

With “3S-1,2,3,4-tetrahydro-β-carboline-3-carboxyl-Ala-Arg-Pro-Ala-OH (ARPA-OH; not fully specified (N-terminus); printed as 3S-1,2,3,4-tetrahydro-β-carboline-3-carboxyl-Ala-Arg-Pro-Ala-OH) [compound 17]”, the “Euglobulin clot lysis time, x ± SD” value in experiment [1] turned out to be 213.55 ± 30.47 min. For the same substance, the “Effect of the pseudopeptides … x ± SD” value with fibrin plate was determined as 23.44 ± 10.18 mm^2. Also, the “The reduction … x ± SD” value with thrombus amounted to 13.55 ± 2.47 mg.

As to “3S-1,2,3,4-tetrahydro-β-carboline-3-carboxyl-Ala-Arg-Pro-OH [compound 18]”, the “Euglobulin clot lysis time, x ± SD” value in experiment [1] was found to be 203.66 ± 30.44 min. The “Effect of the pseudopeptides … x ± SD” value in the experiment with fibrin plate was 23.88 ± 10.04 mm^2. Further, in the experiment on thrombus, the “The reduction … x ± SD” value is 13.66 ± 2.44 mg.

As to “3S-1,2,3,4-tetrahydro-β-carboline-3-carboxyl-Arg-Arg-Pro-Ala-Lys-OH (RRPAK-OH; not fully specified (N-terminus); printed as 3S-1,2,3,4-tetrahydro-β-carboline-3-carboxyl-Arg-Arg-Pro-Ala-Lys-OH) [compound 26]”, the “Euglobulin clot lysis time, x ± SD” value in experiment [1] is listed as 214.80 ± 32.96 min. The “Effect of the pseudopeptides … x ± SD” value with fibrin plate is 24.00 ± 12.01 mm^2. Further, the “The reduction … x ± SD” value in the experiment with thrombus was determined as 14.80 ± 2.96 mg.

Regarding “3S-1,2,3,4-tetrahydro-β-carboline-3-carboxyl-Arg-Pro-Ala-Lys-OH (RPAK-OH; not fully specified (N-terminus); printed as 3S-1,2,3,4-tetrahydro-β-carboline-3-carboxyl-Arg-Pro-Ala-Lys-OH) [compound 19]”, the “Euglobulin clot lysis time, x ± SD” value in experiment [1] is listed as 213.56 ± 29.95 min. Further, the “Effect of the pseudopeptides … x ± SD” value in the experiment on fibrin plate is given as 20.33 ± 9.28 mm^2. In addition, the “The reduction … x ± SD” value in the experiment with thrombus is recorded as 13.56 ± 2.45 mg.

On to “3S-1,2,3,4-tetrahydro-β-carboline-3-carboxyl-Asn-Arg-Pro-Ala-Lys-OH (NRPAK-OH; not fully specified (N-terminus); printed as 3S-1,2,3,4-tetrahydro-β-carboline-3-carboxyl-Asn-Arg-Pro-Ala-Lys-OH) [compound 15]”, for which the “Euglobulin clot lysis time, x ± SD” value in experiment [1] came out at 213.12 ± 29.47 min. In the experiment on fibrin plate, the “Effect of the pseudopeptides … x ± SD” value turned out to be 23.21 ± 9.74 mm^2. The “The reduction … x ± SD” value in the experiment on thrombus is 13.12 ± 2.47 mg.

Take “3S-1,2,3,4-tetrahydro-β-carboline-3-carboxyl-Gln-Arg-Pro-Ala-Lys-OH (QRPAK-OH; not fully specified (N-terminus); printed as 3S-1,2,3,4-tetrahydro-β-carboline-3-carboxyl-Gln-Arg-Pro-Ala-Lys-OH) [compound 14]”: the “Euglobulin clot lysis time, x ± SD” value in experiment [1] turned out to be 212.98 ± 28.42 min. Further, in the experiment with fibrin plate, the “Effect of the pseudopeptides … x ± SD” value worked out at 22.89 ± 10.02 mm^2. For the same substance, the “The reduction … x ± SD” value with thrombus is listed as 12.98 ± 2.42 mg.

As for “3S-1,2,3,4-tetrahydro-β-carboline-3-carboxyl-Gly-Arg-Pro-Ala-Lys-OH (GRPAK-OH; not fully specified (N-terminus); printed as 3S-1,2,3,4-tetrahydro-β-carboline-3-carboxyl-Gly-Arg-Pro-Ala-Lys-OH) [compound 12]”, in experiment [1], the “Euglobulin clot lysis time, x ± SD” value was 213.35 ± 29.47 min. Besides, in the experiment with fibrin plate, the “Effect of the pseudopeptides … x ± SD” value amounted to 23.53 ± 9.74 mm^2. Moreover, the “The reduction … x ± SD” value with thrombus was determined as 13.35 ± 2.47 mg.
